For the test, the target named is X-box-binding protein 1 (Homo sapiens) (UniProt P17861). Kind of test: inhibitors of XBP1 reporter signal, dose response, counter-screen, cell-based (AID 504313).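 Further: CHO cells carrying an XBP1 reporter stimulated with tunicamycin; potency is for inhibition of the tunicamycin-induced reporter signal.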 The settings on record: XBP1 reporter cell assay, percent of control. (Counterscreens check selectivity or assay interference.)

pIC50: −log10 of the molar value. Activity calls are given as the source filed them. How the calls were made is not given here.

Consider `CC(C)C[C@H](NC(=O)OC(C)(C)C)c1nnc(SCC(=O)Nc2ccc(Br)cc2)o1`, for which the pIC50 was 5.31.

As for `COc1c(CC=C(C)C)cc(C2CC(=O)c3c(O)cc(O)cc3O2)cc1CC=C(C)C` (configuration not stated), the IC50 entry was “inactive”.

With `O=S(=O)(NC1CC1)c1ccc(S(=O)(=O)N2CCCC3(CCCCC3)C2)cc1`, the IC50 result was “inactive”.

For the compound `O=C(Nc1nccs1)c1cc2c(s1)CCCCC2`, the IC50 is > 10 µM (inactive).

Consider `CCOC(=O)c1cc([N+](=O)[O-])c([N+](=O)[O-])cc1NC(C)=O`, for which the IC50 entry was “inactive”.

As to `O=C1CC(Sc2nnnn2-c2ccccc2)C(=O)N1c1cccc(Cl)c1` (configuration not stated), the IC50 is > 10 µM (inactive).

For the compound `Cc1nc(Nc2nc(CSc3nc4ccccc4[nH]3)cc(=O)[nH]2)nc2ccccc12`, the IC50 was > 10 µM (inactive).

As for `CCOC(=O)Cc1csc(NC(=O)NC2(C(F)(F)F)Oc3cc(Cl)c(Cl)cc3O2)n1`, the IC50 entry is “inactive”.

On to `O=c1c(Cl)nc2cc(Cl)ccc2n1CCNc1ncc(C(F)(F)F)cc1Cl`, for which the pIC50 is 5.33.

As for `CC(NC(=O)/C(C#N)=C/c1ccc(Cl)c([N+](=O)[O-])c1)c1ccccc1` (configuration not stated), the IC50 is > 10 µM (inactive).

Take `Cc1nn(Cc2c(Cl)cccc2Cl)c(C)c1NC(=O)c1cn(-c2ccccc2)nc1-c1ccccc1`: the IC50 result was “inactive”.

As for `C=C(C)Cn1c(N2CCC(Cc3ccccc3)CC2)nc2c1c(=O)[nH]c(=O)n2C`, the IC50 is > 10 µM (inactive).

For the compound `CC(C)(C)c1ccc(CN2N=Nc3ccccc3S2(=O)=O)cc1`, the IC50 entry was “inactive”.

For `C[C@H](NC(=O)c1[nH]cnc1C(=O)Nc1ccc(Cl)cc1)C(=O)OC(C)(C)C`, the IC50 entry is “inactive”.

`CNC(=O)c1nnsc1S(=O)(=O)c1ccc(Cl)cc1`: the IC50 entry was “inactive”.

Regarding `CCOc1cccc(C(=O)Nc2cccc(-c3nnc(-c4ccc(C)cc4)o3)c2)c1`, the IC50 was > 10 µM (inactive).

For `CCc1ccc(-c2cc(C(=O)N3N=C(C(F)F)CC3(O)C(F)F)c3ccccc3n2)cc1` (configuration not stated), the IC50 result is “inactive”.

As for `CS(=O)(=O)c1nc(-c2ccc(F)cc2)cc(C(F)(F)F)n1`, the IC50 result was “inactive”.

Take `CCOC(=O)N=Nc1c2ccccc2c2nc3no[nH]c3nc12`: the IC50 result was “inactive”.

On to `COC(=O)CS(=O)(=O)c1nnc([C@H](Cc2ccccc2)NC(=O)OC(C)(C)C)o1`, for which the IC50 result is “inactive”.

Turning to `Cn1c2ccccc2c(=O)c2c(=O)n(C3CCCCCC3)c(C3CCCCC3)nc21`, the IC50 is > 10 µM (inactive).

On to `O=C1C=CC(=O)N1CCCCCCN1C(=O)C=CC1=O`, for which the IC50 entry was “inactive”.

In the case of `COc1cc(/C=C/C(=O)OC2CC3CCC2(C)C3(C)C)ccc1O` (configuration not stated), the IC50 is > 10 µM (inactive).

Regarding `O=c1[nH]c(NNC(=S)NC2CCCCC2)nc2c1C1(CCCC1)Cc1ccccc1-2`, the IC50 was > 10 µM (inactive).

`COc1cc(OC)cc(-c2nc3ccccc3c(=O)n2OC(=O)c2ccc(Br)cc2)c1`: the IC50 is > 10 µM (inactive).

For `CCOC(=O)c1c(CN2CCOCC2)n(-c2ccccc2)c2cc(Br)c(O)cc12`, the IC50 is > 10 µM (inactive).

Take `O=C(N=Nc1c(O)n(Cc2ccccc2)c2ccccc12)c1cc2ccccc2cc1O`: the IC50 result is “inactive”.

As to `O=C(NCc1ccccc1Cl)c1ccc(S(=O)(=O)Nc2cccc(C(F)(F)F)c2)cc1`, the IC50 was > 10 µM (inactive).

As to `Nc1c(C(=O)Nc2ccccc2F)sc2nc(-c3cccnc3)ccc12`, the IC50 is > 10 µM (inactive).

Consider `CCCCCCCCCCCCCCCC[n+]1cccc(C(=O)N(CC)CC)c1`, for which the IC50 result is “inactive”.

Regarding `Cc1cccc(/C=N/Nc2ccc3ccccc3n2)c1`, the IC50 entry was “inactive”.

Take `FC(F)(F)c1cc(-c2cccs2)nc(-n2cc(Br)cn2)n1`: the IC50 is > 10 µM (inactive).

Turning to `Cc1ccc(C)c(NC(=S)NC(NC(=O)/C=C/c2ccccc2)C(Cl)(Cl)Cl)c1` (configuration not stated), the IC50 was > 10 µM (inactive).

In the case of `CC(=O)C(C(C)=O)c1c(Cl)c(O)c(O)c2c(C(=O)c3ccccc3)coc12`, the IC50 entry was “inactive”.

For `Cc1ccc(-c2cc3c(nn2)-c2ccccc2C3=O)cc1`, the IC50 entry was “inactive”.

Regarding `Cc1ccc(/C=C2\SC(=S)N(CCCC(=O)Nc3ccc(O)cc3)C2=O)cc1`, the pIC50 is > 6.80.

With `O=C(/C=C/c1ccccc1)Nc1cccc(C(=O)O)c1`, the IC50 entry is “inactive”.

As to `Cc1cc(Br)c2c(c1)/C(=C/C(=O)c1cccs1)C(=O)N2`, the IC50 is > 10 µM (inactive).

With `Oc1ccc(Br)cc1-c1cc(-c2ccccc2F)[nH]n1`, the IC50 was > 10 µM (inactive).

Regarding `Cc1ccc(-n2ncc(Br)c(Br)c2=O)cc1`, the IC50 result was “inactive”.

Take `CC(C)(C)OC(=O)N[C@@H](Cc1ccccc1)c1nnc(S(=O)(=O)Cc2ccccc2)o1`: the IC50 entry was “inactive”.

As to `Cc1nc(SCC(=O)Nc2ccc(F)cc2)c(C#N)c(C)c1CC(=O)c1ccc(Br)cc1`, the IC50 was > 10 µM (inactive).

In the case of `OC(CNCC(c1ccc(Cl)cc1Cl)c1c[nH]c2ccccc12)c1ccccc1` (configuration not stated), the IC50 result was “inactive”.

In the case of `C=CCn1c(SCC(=O)Nc2ccc(-c3nc4ccc(C)cc4s3)cc2)nnc1-c1ccccc1`, the IC50 is > 10 µM (inactive).

For `CCSc1nc2ccccc2n1C(=O)/C=C/c1ccc(OC)c(OC)c1`, the pIC50 is 5.32.

`COc1cc(/C=C2\CC/C(=C\c3cc(OC)c(O)c(OC)c3)C2=O)cc(OC)c1O`: the IC50 result is “inactive”.

Take `O=C(Nc1ccc(F)cc1)Nc1ccc(N2CCCC2)c(S(=O)(=O)Nc2ccccc2Cl)c1`: the IC50 entry was “inactive”.

As for `COc1ccc(Cc2nc3ccccc3n2CC(=O)N/N=C/c2ccc(C)cc2O)cc1OC`, the IC50 was > 10 µM (inactive).

Regarding `CC(C)Cn1c(N)c(C(=O)COC(=O)C2CCCCC2)c(=O)n(C)c1=O`, the IC50 is > 10 µM (inactive).

Consider `COc1ccc(NC(=O)c2cc(-c3cc(C)cc(C)c3O)n[nH]2)cc1Cl`, for which the IC50 is > 10 µM (inactive).

Consider `Cc1ccc(OCC(=O)N2CCN(c3nnc(-c4ccc(C)cc4)c4ccccc34)CC2)cc1`, for which the IC50 result is “inactive”.

As to `CCCCS(=O)(=O)/C=C\C=C/S(=O)(=O)CCCC`, the pIC50 is 5.57.

Regarding `Nc1cccc(Nc2nc(OC(C(F)(F)F)C(F)(F)F)nc(OC(C(F)(F)F)C(F)(F)F)n2)c1`, the pIC50 is 5.68.

`COc1ccccc1C(=O)NC(=Nc1nc2ccccc2o1)NC(=O)c1ccccc1OC`: the IC50 result was “inactive”.

`CCC(NC(=O)Nc1nnc(C(F)(F)F)s1)(C(F)(F)F)C(F)(F)F`: the negative logarithm of the IC50 (pIC50) was 5.70.

As for `CC1CCc2cc(F)ccc2N1C(=O)CSc1nnc2c(n1)[nH]c1ccc(F)cc12` (configuration not stated), the IC50 is > 10 µM (inactive).

Take `CCCOc1ccccc1C1CC(=O)NC(C)=C1C(=O)OCC(C)C` (configuration not stated): the IC50 result is “inactive”.

On to `Nc1nnnn1/N=C/C(Br)=C/c1ccccc1`, for which the IC50 was > 10 µM (inactive).

`C=CCSc1nc2ccccc2n1C(=O)/C=C/c1cc(OC)c(OC)c(OC)c1`: the pIC50 was 5.76.

As to `FC(F)(F)c1cccc(NC(=S)N2CCN(c3cccc(C(F)(F)F)c3)CC2)c1`, the negative-log IC50 (pIC50) is 5.34.

On to `O=C1C(Cl)=C(Nc2ccccc2)C(=O)c2ccccc21`, for which the IC50 result is “inactive”.

`O=S(=O)(N/N=C/c1ccc(Cl)cc1)c1ccc(Cc2ncc(C(F)(F)F)cc2Cl)s1`: the IC50 result was “inactive”.

For orientation: pIC50 means the IC50 on a negative log10 scale, so that one unit is a factor of ten. Usually IC50 stands for the concentration needed to halve the response being measured.
